Reference: BindingDB's records for doi:10.1016/S0960-894X(01)81014-3 (1993)
Residues, ends and D or L forms follow the SMILES beside them. *: point of attachment. Adamantane1carbonyl = O=C(C12CC3CC(CC(C3)C1)C2)*

Assay: Compound was evaluated for binding affinity against Opioid receptor delta 1 binding assay: Inactive

CC[C@H](C)[C@H](NC(=O)[C@H](Cc1ccc(O)cc1)NC(=O)[C@@H]1CCCN1C(=O)[C@H](CCCCN)NC(=O)C12CC3CC(CC(C3)C1)C2)C(=O)N[C@@H](CC(C)C)C(=O)O [(S)-2-{(2S,3S)-2-[(S)-2-[((S)-1-{(S)-2-[(Adamantane-1-carbonyl)-amino]-6-amino-hexanoyl}-pyrrolidine-2-carbonyl)-amino]-3-(4-hydroxy-phenyl)-propionylamino]-3-methyl-pentanoylamino}-4-methyl-pentanoic acid] (Adamantane1carbonyl-KPYIL-OH)
Ki: > 100 µM
